Experimental data reported in US20190380346A1, “METHOD OF IMPROVING HEALTH AND ROOTING OF HARDWOOD TREES” (Bayer CropScience LP, priority 2018, published 2019).

Tests used:
hardwood trees [1] = experiment: Growth Response for Pre-Plant Treatments (Example 7), summary over treated species; assay type: in vivo; conditions: pre-plant (Table 7); all treated species, with the exceptions of chestnut oak and Chinese chestnut
Procedure: (§1) Hybrid poplar seedlings were planted as stem cuttings.
(§2) Stem volume index is calculated as D^2H where D=groundline stem diameter and H=total height.

hardwood trees [2] = experiment: Growth Response for Post-Plant Treatments (Example 8), summary over treated species; assay type: in vivo; conditions: post-plant (Table 8); all treated species except for Chinese chestnut
Procedure: as §1, §2

Cc1ccc2c(c1)[C@H](Nc1nc(N)nc(C(C)F)n1)[C@@H](C)C2 (mixture of isomers) [indaziflam, N2-[(1R,2S)-2,3-dihydro-2,6-dimethyl-1H-inden-1-yl]-6-[(1RS)-1-fluoroethyl]-1,3,5-triazine-2,4-diamine]
growth response (hardwood trees [1]): positive growth response
growth response (hardwood trees [2]): positive growth response
